PubChem BioAssay AID1259407 (Chemical Carcinogenesis Research Information System (CCRIS), 2018)
The source made the active and inactive calls. How the calls were made is not given here.

Tested on: CCRIS mutagenicity, Ames/micronucleus/aberration tests
Assay: CCRIS mutagenicity studies
[1] = Test System: AMES SALMONELLA TYPHIMURIUM, Strain/Indicator: TA100, Metabolic Activation: NONE, Method: PREINCUBATION

Q: What does the source list for `CCCCO[C@@H](CC)CO`?
A: mutagenic call (Test System: AMES SALMONELLA TYPHIMURIUM, Strain/Indicator: TA98, Metabolic Activation: NONE, Method: PREINCUBATION): inactive; negative; mutagenic call (Test System: AMES SALMONELLA TYPHIMURIUM, Strain/Indicator: TA98, Metabolic Activation: RAT LIVER S-9, PHENOBARBITAL AND BETA-NAPHTHOFLAVONE, Method: PREINCUBATION): inactive; negative; mutagenic call [1]: inactive; negative; mutagenic call (Test System: AMES SALMONELLA TYPHIMURIUM, Strain/Indicator: TA100, Metabolic Activation: RAT LIVER S-9, PHENOBARBITAL AND BETA-NAPHTHOFLAVONE, Method: PREINCUBATION): inactive; negative; mutagenic call (Test System: AMES SALMONELLA TYPHIMURIUM, Strain/Indicator: TA1535, Metabolic Activation: NONE, Method: PREINCUBATION): inactive; negative; mutagenic call (Test System: AMES SALMONELLA TYPHIMURIUM, Strain/Indicator: TA1535, Metabolic Activation: RAT LIVER S-9, PHENOBARBITAL AND BETA-NAPHTHOFLAVONE, Method: PREINCUBATION): inactive; negative; mutagenic call (Test System: AMES SALMONELLA TYPHIMURIUM, Strain/Indicator: TA1537, Metabolic Activation: NONE, Method: PREINCUBATION): inactive; negative; mutagenic call (Test System: AMES SALMONELLA TYPHIMURIUM, Strain/Indicator: TA1537, Metabolic Activation: RAT LIVER S-9, PHENOBARBITAL AND BETA-NAPHTHOFLAVONE, Method: PREINCUBATION): inactive; negative; mutagenic call (Test System: E.COLI, Strain/Indicator: WP2UVRA/PKM101, Metabolic Activation: NONE, Method: PREINCUBATION): inactive; negative; mutagenic call (Test System: E.COLI, Strain/Indicator: WP2UVRA/PKM101, Metabolic Activation: RAT LIVER S-9, PHENOBARBITAL AND BETA-NAPHTHOFLAVONE, Method: PREINCUBATION): inactive; negative

Q: How did the mutagenic call (Test System: AMES SALMONELLA TYPHIMURIUM, Strain/Indicator: TA98, Metabolic Activation: NONE, Method: FLASK ASSAY) turn out when `CC(Br)(CBr)CBr` was run?
A: inactive; negative

Q: What about the mutagenic call (Test System: AMES SALMONELLA TYPHIMURIUM, Strain/Indicator: TA98, Metabolic Activation: RAT, LIVER, S-9, AROCLOR 1254, Method: FLASK ASSAY) of the same compound?
A: inactive; negative

Q: And the mutagenic call (Test System: AMES SALMONELLA TYPHIMURIUM, Strain/Indicator: TA100, Metabolic Activation: NONE, Method: FLASK ASSAY)?
A: inactive; negative

Q: And the mutagenic call (Test System: AMES SALMONELLA TYPHIMURIUM, Strain/Indicator: TA100, Metabolic Activation: RAT, LIVER, S-9, AROCLOR 1254, Method: FLASK ASSAY)?
A: inactive; negative

Q: And the mutagenic call (Test System: AMES SALMONELLA TYPHIMURIUM, Strain/Indicator: TA1535, Metabolic Activation: NONE, Method: FLASK ASSAY)?
A: inactive; negative

Q: And the mutagenic call (Test System: AMES SALMONELLA TYPHIMURIUM, Strain/Indicator: TA1535, Metabolic Activation: RAT, LIVER, S-9, AROCLOR 1254, Method: FLASK ASSAY)?
A: inactive; negative

Q: What about the mutagenic call (Test System: AMES SALMONELLA TYPHIMURIUM, Strain/Indicator: TA1537, Metabolic Activation: NONE, Method: FLASK ASSAY) of the same compound?
A: inactive; negative

Q: And the mutagenic call (Test System: AMES SALMONELLA TYPHIMURIUM, Strain/Indicator: TA1537, Metabolic Activation: RAT, LIVER, S-9, AROCLOR 1254, Method: FLASK ASSAY)?
A: inactive; negative

Q: And the mutagenic call (Test System: AMES SALMONELLA TYPHIMURIUM, Strain/Indicator: TA1538, Metabolic Activation: NONE, Method: FLASK ASSAY)?
A: inactive; negative

Q: What about the mutagenic call (Test System: AMES SALMONELLA TYPHIMURIUM, Strain/Indicator: TA1538, Metabolic Activation: RAT, LIVER, S-9, AROCLOR 1254, Method: FLASK ASSAY) of the same compound?
A: inactive; negative

Q: And the mutagenic call (Test System: MOUSE LYMPHOMA, Strain/Indicator: L5178Y (TK+/TK-), Metabolic Activation: NONE, Method: SUSPENSION/PLATE)?
A: active; positive

Q: And the mutagenic call (Test System: MOUSE LYMPHOMA, Strain/Indicator: L5178Y (TK+/TK-), Metabolic Activation: RAT, LIVER, S-9, AROCLOR 1254, Method: SUSPENSION/PLATE)?
A: active; positive

Q: With `COc1ccc2c(c1OC)c(=O)n(C)c1c3cc4c(cc3ccc21)OCO4` as the compound, how does the mutagenic call (Test System: AMES SALMONELLA TYPHIMURIUM, Strain/Indicator: TA100, Metabolic Activation: RAT, LIVER, S-9, PHENOBARBITAL AND BETA-NAPHTHOFLAVONE, Method: PREINCUBATION) read?
A: active; positive

Q: Which mutagenic call (Test System: AMES SALMONELLA TYPHIMURIUM, Strain/Indicator: TA98, Metabolic Activation: RAT, LIVER, S-9, AROCLOR 1254 (0.14 OR 0.41 MG), Method: STANDARD PLATE) does the source give for `C1=Cc2cc3cccc4c5ccccc5c5ccc1c2c5c34` here?
A: active; positive

Q: And the mutagenic call (Test System: AMES SALMONELLA TYPHIMURIUM, Strain/Indicator: TA100, Metabolic Activation: RAT, LIVER, S-9, AROCLOR 1254 (0.14 OR 0.41 MG), Method: STANDARD PLATE)?
A: active; positive

Q: And the mutagenic call (Test System: AMES SALMONELLA TYPHIMURIUM, Strain/Indicator: TA104, Metabolic Activation: RAT, LIVER, S-9, AROCLOR 1254 (0.14 OR 0.41 MG), Method: STANDARD PLATE)?
A: active; positive

Q: What about the mutagenic call (Test System: AMES SALMONELLA TYPHIMURIUM, Strain/Indicator: TA1535, Metabolic Activation: RAT, LIVER, S-9, AROCLOR 1254 (0.14 OR 0.41 MG), Method: STANDARD PLATE) of the same compound?
A: inactive; negative

Q: What about the mutagenic call (Test System: AMES SALMONELLA TYPHIMURIUM, Strain/Indicator: TA1537, Metabolic Activation: RAT, LIVER, S-9, AROCLOR 1254 (0.14 OR 0.41 MG), Method: STANDARD PLATE) of the same compound?
A: active; positive

Q: And the mutagenic call (Test System: AMES SALMONELLA TYPHIMURIUM, Strain/Indicator: TA1538, Metabolic Activation: RAT, LIVER, S-9, AROCLOR 1254 (0.14 OR 0.41 MG), Method: STANDARD PLATE)?
A: active; positive

Q: For `ClCC1C(CCl)[C@@]2(Cl)C(Cl)=C(Cl)[C@]1(Cl)C2(Cl)Cl` (stereo partly specified), which mutagenic call (Test System: AMES SALMONELLA TYPHIMURIUM, Strain/Indicator: TA97, Metabolic Activation: NONE, Method: STANDARD PLATE) is on record?
A: inactive; negative

Q: And the mutagenic call (Test System: AMES SALMONELLA TYPHIMURIUM, Strain/Indicator: TA97, Metabolic Activation: RAT, LIVER, S-9, AROCLOR 1254, Method: STANDARD PLATE)?
A: inactive; negative

Q: And the mutagenic call (Test System: AMES SALMONELLA TYPHIMURIUM, Strain/Indicator: TA98, Metabolic Activation: NONE, Method: STANDARD PLATE)?
A: inactive; negative

Q: And the mutagenic call (Test System: AMES SALMONELLA TYPHIMURIUM, Strain/Indicator: TA98, Metabolic Activation: RAT, LIVER, S-9, AROCLOR 1254, Method: STANDARD PLATE)?
A: inactive; negative

Q: What about the mutagenic call (Test System: AMES SALMONELLA TYPHIMURIUM, Strain/Indicator: TA100, Metabolic Activation: NONE, Method: STANDARD PLATE) of the same compound?
A: inactive; negative

Q: What about the mutagenic call (Test System: AMES SALMONELLA TYPHIMURIUM, Strain/Indicator: TA100, Metabolic Activation: RAT, LIVER, S-9, AROCLOR 1254, Method: STANDARD PLATE) of the same compound?
A: inactive; negative

Q: What about the mutagenic call (Test System: AMES SALMONELLA TYPHIMURIUM, Strain/Indicator: TA102, Metabolic Activation: NONE, Method: STANDARD PLATE) of the same compound?
A: inactive; negative

Q: And the mutagenic call (Test System: AMES SALMONELLA TYPHIMURIUM, Strain/Indicator: TA102, Metabolic Activation: RAT, LIVER, S-9, AROCLOR 1254, Method: STANDARD PLATE)?
A: inactive; negative

Q: With `CCCC=O` as the compound, how does the mutagenic call (End Point: IN VITRO CHROMOSOMAL ABERRATIONS, Test System: CHINESE HAMSTER OVARY CELLS, Metabolic Activation: NONE) read?
A: inactive; negative

Q: What about the mutagenic call (End Point: IN VITRO CHROMOSOMAL ABERRATIONS, Test System: CHINESE HAMSTER OVARY CELLS, Metabolic Activation: RAT, LIVER, S-9, AROCLOR 1254) of the same compound?
A: inactive; negative

Q: And the mutagenic call (End Point: In vitro chromosomal aberrations, Test System: Chinese hamster lung (CHL/IU) cells, Metabolic Activation: Rat, Liver, S9, Phenobarbital and 5,6-benzoflavone)?
A: active; positive (structural changes). ploidy not dose related.

Q: What about the mutagenic call [1] of the same compound?
A: inactive; negative

Q: What about the mutagenic call (Test System: AMES SALMONELLA TYPHIMURIUM, Strain/Indicator: TA100, Metabolic Activation: RAT LIVER S-9, AROCLOR 1254, Method: PREINCUBATION) of the same compound?
A: inactive; negative

Q: And the mutagenic call (Test System: AMES SALMONELLA TYPHIMURIUM, Strain/Indicator: TA102, Metabolic Activation: NONE, Method: PREINCUBATION)?
A: inactive; negative

Q: What about the mutagenic call (Test System: AMES SALMONELLA TYPHIMURIUM, Strain/Indicator: TA102, Metabolic Activation: RAT LIVER S-9, AROCLOR 1254, Method: PREINCUBATION) of the same compound?
A: inactive; negative

Q: What about the mutagenic call (Test System: AMES SALMONELLA TYPHIMURIUM, Strain/Indicator: TA104, Metabolic Activation: NONE, Method: PREINCUBATION) of the same compound?
A: inactive; negative

Q: What about the mutagenic call (Test System: AMES SALMONELLA TYPHIMURIUM, Strain/Indicator: TA104, Metabolic Activation: RAT LIVER S-9, AROCLOR 1254, Method: PREINCUBATION) of the same compound?
A: inactive; negative

Q: And the mutagenic call (Test System: CHINESE HAMSTER V-79, Strain/Indicator: V-79/6-THIOGUANINE (HGPRT), Metabolic Activation: NONE, Method: REPLATING)?
A: active; positive

Q: What about the mutagenic call (Test System: CHINESE HAMSTER V-79, Strain/Indicator: V-79/OUABAIN (NA/K), Metabolic Activation: NONE, Method: REPLATING) of the same compound?
A: active; positive

Q: And the mutagenic call (Test System: UDS HUMAN HEPATOCYTES, Strain/Indicator: THY INCORP, Metabolic Activation: NONE, Method: AUTORADIOGRAPHY)?
A: inactive; negative

Q: What about the mutagenic call (Test System: UDS RAT HEPATOCYTES, Strain/Indicator: THY INCORP, Metabolic Activation: NONE, Method: AUTORADIOGRAPHY) of the same compound?
A: active; positive

Q: How did the mutagenic call (Test System: AMES SALMONELLA TYPHIMURIUM, Strain/Indicator: TA1538, Metabolic Activation: RAT, LIVER, S-9, AROCLOR 1254, Method: STANDARD PLATE) turn out when `Nc1nc2c(s1)CC[C@@H]1NCCC[C@@H]21` was run?
A: inactive; negative
